Results: patent US20110124574A1, “RESTORATION OF ESTROGEN RECEPTOR-(ALPHA) ACTIVITY” (priority 2008, published 2011)
Where no end group is shown, it is not given here. The star is where a group is joined. For = O=C*

System: ERα
Experiment: ERα protein expression by Western blot in stimulated MDA-MB-231 cells
Assay type: cell-based, human
Settings: stimulation 24 and 48 hours, rWnt-5a 0.6 μg/ml, rWnt-3a 0.1 μg/ml, peptides 100 μM
Description: Breast cancer cells were grown in 6 well plates, and stimulated with recombinant Wnt-5a protein (rW5a), the Wnt-5a derived Foxy-5 peptide (F5), recombinant Wnt-3a protein (rW3a), or a formylated random hexapeptide (Rdm) for 24 or 48 h. Following treatment cells were lysed and subjected to SDS-PAGE, transferred to nitrocellulose membranes and blotted for ERα expression. A: MDA-MB-231 cells stimulated with recombinant Wnt-5a, Foxy-5, Wnt-3a, Rdm. B: MDA-MB-468 cells stimulated with recombinant Wnt-5a or Foxy-5. C: 4T1 cells stimulated with recombinant Wnt-5a or Foxy-5. Positive controls (Pos) were included in order to confirm the correct band size for ERα. Two different positive controls were used: T47D cell lysates known to express ERα and MDA-MB-231 cells transiently transfected with a full length ERα plasmid, resulting in extremely high ERα expression (top row, right panel, third row, right panel).
Stimulation of cells was performed with recombinant Wnt-5a (0.6 μg/ml) and recombinant Wnt-3a (0.1 μg/ml and in a control experiment, 0.6 μg/ml) (R&D Systems Abington, UK) for times as indicated. The Wnt-5a derived formylated hexapeptide, Foxy-5 (formyl-MDGCEL) (SEQ. ID. NO. 1) designed in the laboratory of the inventors, and a formylated random hexapeptide (formyl-MSADVG) (SEQ: ID: NO: 16) were either synthesized by Pepscan Presto (Lelystad, The Netherlands) or Inbiolabs (Tallinn, Estonia). The peptides were purified by RP-HPLC and mass spectrometry, and the >95% pure peptides were synthesized three times. Cells were treated with Foxy-5 or random peptide at a concentration of 100 μM for times as indicated. All other chemicals if not otherwise stated were purchased from Sigma Chemicals (St. Louis, Mo.).
Cells were lysed in Triton lysis buffer (50 mM Tris (pH7.5), 1% Triton x-100, 140 mM NaCl, 0.5 mM EDTA, 0.5 MgCl2, 10 mM NaF) with the addition of fresh leupeptin (1 μg/ml), Pefabloc (2 mM), aprotinin (20 μg/ml) and Na3VO4 (4 mM). […] Scanning and densitometry was performed using a Bio-Rad (Hercules Calif.) GS-800 densitometer with Quantity One software. […]

Row | Molecule | levels of ERα protein
1 | For-MSADVG [formylated random hexapeptide, reference compound] | Neither of these stimulations resulted in increased levels
2 | recombinant Wnt-3a: recombinant Wnt-3a protein (R&D Systems), specificity control (protein, UniProt P56704 19-352, looked up) Protein Wnt-3a: SYPIWWSLAVGPQYSSLGSQPILCASIPGLVPKQLRFCRNYVEIMPSVAEGIKIGIQECQHQFRGRRWNCTTVHDSLAIFGPVLDKATRESAFVHAIASAGVAFAVTRSCAEGTAAICGCSSRHQGSPGKGWKWGGCSEDIEFGGMVSREFADARENRPDARSAMNRHNNEAGRQAIASHMHLKCKCHGLSGSCEVKTCWWSQPDFRAIGDFLKDKYDSASEMVVEKHRESRGWVETLRPRYTYFKVPTERDLVYYEASPNFCEPNPETGSFGTRDRTCNVSSHGIDGCDLLCCGRGHNARAERRREKCRCVFHWCCYVSCQECTRVYDVHTCK | Neither of these stimulations resulted in increased levels
